Results published in patent US9796777B2, “Methods of treating malignant tumors” (Canimguide Therapeutics AB, priority 2007, dated 2017).

Key:
PBMC = assay: Human ex vivo model: IL-2 induced proliferation of PBMC in the presence of albumin peptides
CD25 = assay: Binding of biotinylated IL-2 to CD25-Fc fusion protein on ELISA plates with or without peptide 3028; conditions: CD25-Fc on protein G coated plates
Excerpt: Based on this observation, the effect of peptide 3028 on the binding of IL-2 to CD25 was studied. […] Amazingly, the binding of IL-2 to CD25 was enhanced by peptide 3028, indicating a three-part interaction between IL-2, CD25 and 3028.

CD25, sequence (P01589 22-240 limits assumed): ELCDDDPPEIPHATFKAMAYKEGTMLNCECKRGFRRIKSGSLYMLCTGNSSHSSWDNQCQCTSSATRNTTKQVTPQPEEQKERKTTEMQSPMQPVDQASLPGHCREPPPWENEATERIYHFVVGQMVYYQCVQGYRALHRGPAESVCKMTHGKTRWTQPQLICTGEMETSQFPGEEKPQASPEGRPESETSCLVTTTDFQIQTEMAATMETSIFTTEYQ

Sequence: VFDEFKPLVEEPQNLIK [peptide 3028]
- effect on IL-2 induced proliferation (PBMC; cancer patient PBMCs): inhibitory activity
- effect on IL-2 induced proliferation (PBMC; human ex vivo model, PBMCs from healthy controls, peptides 10 μg/ml): regularly inhibits IL-2 induced proliferation
- effect on the binding of IL-2 to CD25 (CD25): enhanced
